# Source: ChEMBL document CHEMBL4130638, “Discovery of the Polyamine Conjugate with Benzo[ cd]indol-2(1 H)-one as a Lysosome-Targeted Antimetastatic Agent” (J Med Chem, 2018)
# Active and inactive are the calls of the source. The rule behind the calls is not given here.
# Legend:
# HepG2 = assay: Growth inhibition of human HepG2 cells after 48 hrs by MTT assay; type: functional, cell-based; conditions: HepG2, 48 h
# SMMC-7721 = assay: Growth inhibition of human SMMC7721 cells after 48 hrs by MTT assay; type: functional, cell-based; conditions: SMMC-7721, 48 h
# HCT-116 [1] = assay: Growth inhibition of human HCT116 cells after 48 hrs by MTT assay; type: functional, cell-based; conditions: HCT-116, 48 h
# K562 = assay: Growth inhibition of human K562 cells after 48 hrs by MTT assay; type: functional, cell-based; conditions: K562, 48 h
# HCT-116 [2] = assay: Downregulation of MMP2 protein expression in human HCT116 cells at 10 uM after 24 hrs by Western blot method; type: functional, cell-based
# CT26 [3] = assay: Growth inhibition of mouse CT26 cells after 24 hrs by MTT assay; type: functional, cell-based
# Mus musculus [4] = assay: Toxicity in Balb/c mouse implanted with mouse CT26 cells assessed as changes in body weight at 5 mg/kg, iv for 7 consecutive days starting from day 8 post tumor implantation; type: organism-based; conditions: in vivo
# CT26 [5] = assay: Induction of apoptosis in mouse CT26 cells assessed as early apoptotic cells at 10 uM after 24 hrs by annexin V-FITC/propidium iodide staining based flow cytometry (reference value: 3.91%); type: functional
# CT26 [6] = assay: Induction of apoptosis in mouse CT26 cells assessed as necrotic cells at 10 uM after 24 hrs by annexin V-FITC/propidium iodide staining based flow cytometry (reference value: 4.36%); type: functional
# CT26 [7] = assay: Antitumor activity against mouse CT26 cells implanted in Balb/c mouse assessed as solid tumor growth inhibition at 5 mg/kg, iv for 14 consecutive days measured on day 15 relative to control; type: functional; conditions: 360 h, read-out: TGI
# HCT-116 [8] = assay: Downregulation of beta-catenin protein expression in human HCT116 cells at 10 uM after 24 hrs by Western blot method; type: functional, cell-based
# CT26 [9] = assay: Antimigratory activity against mouse CT26 cells at 10 uM after 24 hrs by crystal violet staining based transwell assay; type: functional, cell-based
# CT26 [10] = assay: Induction of apoptosis in mouse CT26 cells assessed as live cells at 10 uM after 24 hrs by annexin V-FITC/propidium iodide staining based flow cytometry (reference value: 89.47%); type: functional
# HCT-116 [11] = assay: Induction of apoptosis in human HCT116 cells assessed as early apoptotic cells at 10 uM after 24 hrs by annexin V-FITC/propidium iodide staining based flow cytometry (reference value: 4.1%); type: functional
# Mus musculus [12] = assay: Toxicity in Balb/c mouse implanted with mouse CT26 cells assessed as changes in body weight at 5 mg/kg, iv for 14 consecutive days starting from day 8 post tumor implantation; type: organism-based; conditions: in vivo
# HCT-116 [13] = assay: Induction of apoptosis in human HCT116 cells assessed as necrotic cells at 10 uM after 24 hrs by annexin V-FITC/propidium iodide staining based flow cytometry (reference value: 3.9%); type: functional
# HCT-116 [14] = assay: Induction of apoptosis in human HCT116 cells assessed as late apoptotic cells at 10 uM after 24 hrs by annexin V-FITC/propidium iodide staining based flow cytometry (reference value: 2.03%); type: functional
# HCT-116 [15] = assay: Induction of apoptosis in human HCT116 cells assessed as live cells at 10 uM after 24 hrs by annexin V-FITC/propidium iodide staining based flow cytometry (reference value: 89.97%); type: functional
# HCT-116 [16] = assay: Growth inhibition of human HCT116 cells after 24 hrs by MTT assay; type: functional, cell-based
# HCT-116 [17] = assay: Antimigratory activity against human HCT116 cells at 10 uM after 24 hrs by crystal violet staining based transwell assay; type: functional, cell-based
# CT26 [18] = assay: Induction of apoptosis in mouse CT26 cells assessed as late apoptotic cells at 10 uM after 24 hrs by annexin V-FITC/propidium iodide staining based flow cytometry (reference value: 2.26%); type: functional
# CT26 [19] = assay: Antimetastatic activity against mouse CT26 cells implanted in Balb/c mouse assessed as inhibition of pulmonary metastasis nodules at 5 mg/kg, iv for 7 consecutive days starting from day 8 post tumor implantation measured on day 15 post tumor implantation relative to control; type: functional
IC50 (HepG2) [µM],IC50 (SMMC-7721) [µM],IC50 (HCT-116 [1]) [µM],IC50 (K562) [µM],Structure (SMILES),also measured
> 50,> 50,> 50,> 50,CCCCN1C(=O)c2cccc3c(NC(=O)CNCCCNCCCN)ccc1c23,
16.1,18,> 50,> 50,CCCCN1C(=O)c2cccc3c(NC(=O)CNCCCCNCCCCNCCCCN)ccc1c23,
25.4,26.1,11.1,28.7,NCCCNCCCCNCCCN1C(=O)c2cccc3cccc1c23,
> 50,43.9,> 50,> 50,NCCCCNCCCCN1C(=O)c2cccc3cccc1c23,
14.6,19.4,12,26.1,NCCCNCCCNCCCN1C(=O)c2cccc3cccc1c23,
21.9,23.3,> 50,> 50,CCCCN1C(=O)c2cccc3c(NC(=O)CNCCCCNCCCCN)ccc1c23,
> 50,> 50,> 50,> 50,CCCCN1C(=O)c2cccc3c(NC(=O)CNCCCCN)ccc1c23,
> 50,> 50,> 50,> 50,CCCCN1C(=O)c2cccc3c(NC(=O)CNCCCNCCCNCCCN)ccc1c23,
3.27,5.59,28.3,23.5,CCCCN1C(=O)c2cccc3c(CNCCCNCCCN)ccc1c23,
10.1,25.4,16.9,> 50,CCCCN1C(=O)c2cccc3c(CNCCCCN)ccc1c23,
> 50,19.4,16.9,11.5,NCCCNCCCN1C(=O)c2cccc3cccc1c23,

Structure (SMILES),IC50 (HepG2) [µM],IC50 (SMMC-7721) [µM],IC50 (HCT-116 [1]) [µM],IC50 (K562) [µM],also measured
CN(C)CCN1C(=O)c2cccc3cc(N)cc(c23)C1=O [AMONAFIDE],11.7,10.3,7.18,20.1,"Activity (HCT-116 [2]): Active; growth inhibition (GI) (CT26 [3]): Dose-dependent effect; IC50 (CT26 [3]; CT26, 24 h): 11.7 µM; Activity (Mus musculus [4]): Non-Toxic; Activity (CT26 [5]): 27.2%; Activity (CT26 [6]): 3.92%; inhibition in vivo at 5 mg/kg (CT26 [7]): 20%; Activity (HCT-116 [8]): Active; Activity (CT26 [9]): Active; Activity (CT26 [10]): 48.49%; Activity (HCT-116 [11]): 14.9%; Activity (Mus musculus [12]): Non-Toxic; Activity (HCT-116 [13]): 7.6%; Activity (HCT-116 [14]): 36.9%; Activity (HCT-116 [15]): 40.53%; growth inhibition (GI) (HCT-116 [16]): Dose-dependent effect; IC50 (HCT-116 [16]; HCT-116, 24 h): 8.55 µM; Activity (HCT-116 [17]): Active; Activity (CT26 [18]): 20.3%; inhibition in vivo at 5 mg/kg (CT26 [19]): 66%"
